In patent US9480638B2, “Cosmetic composition containing extracts of Adenophora triphylla var. japonica Hara, Angelica tenuissima and medicinal herbs” (AMOREPACIFIC CORPORATION, priority 2008, dated 2016):

Columns and labels:
[1] = Test of antioxidant effect (DPPH test); assay type: biochemical; settings: sample concentration at which absorbance at 540 nm is reduced by 50%; 100 μM DPPH in ethanol, 37° C., 30 minutes
Method: To confirm the antioxidant effect of the composition according to the present invention, the DPPH oxidation inhibitory effect of the composition was measured. As a control, the synthetic antioxidant Trolox was used. […] The reaction solution was allowed to react at 37° C. for 30 minutes, and then measured for absorbance at 540 nm. As a control sample, the widely used synthetic antioxidant Trolox was used. In Table 1, IC50 means the sample concentration at which the absorbance is reduced by 50%.

PPARα = biological target: T1, PPARα (Mus musculus, UniProt P23204); experiment: PPARα activation, PPRE promoter/luciferase reporter in transfected HaCaT cells; settings: 10 uM positive control, PPARα expression plasmid + PPRE reporter, Control = 100
T1 sequence (P23204 1-468): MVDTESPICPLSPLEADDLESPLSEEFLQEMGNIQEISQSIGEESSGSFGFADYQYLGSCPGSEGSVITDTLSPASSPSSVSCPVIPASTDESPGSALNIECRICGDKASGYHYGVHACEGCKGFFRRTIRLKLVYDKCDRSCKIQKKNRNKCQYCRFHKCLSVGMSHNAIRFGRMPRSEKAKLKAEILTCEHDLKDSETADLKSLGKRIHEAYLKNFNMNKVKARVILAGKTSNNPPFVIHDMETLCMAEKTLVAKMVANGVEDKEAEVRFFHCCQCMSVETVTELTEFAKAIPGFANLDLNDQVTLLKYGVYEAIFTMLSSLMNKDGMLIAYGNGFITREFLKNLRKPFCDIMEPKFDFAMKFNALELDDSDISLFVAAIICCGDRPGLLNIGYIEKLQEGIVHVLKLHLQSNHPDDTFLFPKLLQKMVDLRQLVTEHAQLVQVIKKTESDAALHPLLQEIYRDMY
Method: Human keratinocyte HaCaT cells were subcultured in 10% fetal bovine serum-containing DMEM medium, which is a phenol red-free medium, in order to eliminate the effect caused by the phenol red's estrogen.
HaCaT cells were seeded into a 24-well plate at a density of 5×10^4 cells/well, cultured for 24 hours, and then transiently transfected with the plasmid genes. […] As a negative control group, a group treated with ethanol used to dissolve the samples was used. After 24 hours of culture, the cells were washed with PBS, harvested and measured for luciferase activity.

| IC50 (DPPH analysis) [1] [ppm] | luciferase activity (PPARα) | SMILES |
| --- | --- | --- |
| 65 | – | Cc1c(C)c2c(c(C)c1O)CCC(C)(C(=O)O)O2 (centres unmarked) [Trolox] |
| – | 300 | Cc1cccc(Nc2cc(Cl)nc(SCC(=O)O)n2)c1C [WY-14643, Wy-14,643] |
